Results: US20240327389A1, “LACTONE AND LACTAM CONTAINING COMPOUNDS USEFUL AS IMMUNOMODULATORS” (BRISTOL-MYERS SQUIBB COMPANY, priority 2021, published 2024)

Target: PD-1/PD-L1 interaction (PD-1-Ig / PD-L1-His) (Homo sapiens (Human), UniProt Q9NZQ7)
Assay: PD-1/PD-L1 Homogenous Time-Resolved Fluorescence (HTRF) binding assay
Details: PD-L1-His 10 nM final, PD-1-Ig 20 nM final
Text: The ability of the compounds of the invention to bind to PD-L1 was investigated using a PD-1/PD-L1 Homogenous Time-Resolved Fluorescence (HTRF) binding assay.
The interaction of PD-1 and PD-L1 can be assessed using soluble, purified preparations of the extracellular domains of the two proteins. The PD-1 and PD-L1 protein extracellular domains were expressed as fusion proteins with detection tags, for PD-1, the tag was the Fc portion of Immunoglobulin (PD-1-Ig) and for PD-L1 it was the 6 histidine motif (PD-L1-His). All binding studies were performed in an HTRF assay buffer consisting of dPBS supplemented with 0.1% […] bovine serum albumin and 0.05% (v/v) Tween-20. For the h/PD-L1-His binding assay, inhibitors were pre-incubated with PD-L1-His (10 nM final) for 15 m in 4 μl of assay buffer, followed by addition of PD-1-Ig (20 nM final) in 1 μl of assay buffer and further incubation for 15 m. HTRF detection was achieved using europium crypate-labeled anti-Ig (1 nM final) and allophycocyanin (APC) labeled anti-His (20 nM final). Antibodies were diluted in HTRF detection buffer and 5 μl was dispensed on top of the binding reaction. The reaction mixture was allowed to equilibrate for 30 minutes and the resulting signal (665 nm/620 nm ratio) was obtained using an EnVision fluorometer. Additional binding assays were established between the human proteins PD-1-Ig/PD-L2-His (20 & 5 nM, respectively) and CD80-His/PD-L1-Ig (100 & 10 nM, respectively).
Recombinant Proteins: Human PD-1 (25-167) with a C-terminal human Fc domain of immunoglobulin G (Ig) epitope tag [hPD-1 (25-167)-3S-IG] and human PD-L1 (18-239) with a C-terminal His epitope tag [hPD-L1(18-239)-TVMV-His] were expressed in HEK293T cells and purified sequentially by ProteinA affinity chromatography and size exclusion chromatography. Human PD-L2-His and CD80-His was obtained through commercial sources.
Homogenous Time-Resolved Fluorescence (HTRF) Assays of Binding of Soluble PD-1 to Soluble PD-L1. Soluble PD-1 and soluble PD-L1 refers to proteins with carboxyl-end truncations that remove the transmembrane-spanning regions and are fused to heterologous sequences, specifically the Fc portion of the human immunoglobuling G sequence (Ig) or the hexahistidine epitope tag (His). All binding studies were performed in an HTRF assay buffer consisting of dPBS supplemented with 0.1% (w/v) bovine serum albumin and 0.05% (v/v) Tween-20. For the PD-1-Ig/PD-L1-His binding assay, inhibitors were pre-incubated with PD-L1-His (10 nM final) for 15 m in 4 μl of assay buffer, followed by addition of PD-1-Ig (20 nM final) in 1 μl of assay buffer and further incubation for 15 m. PD-L1 fusion proteins from either human, cynomologous macaques, mouse, or other species were used. HTRF detection was achieved using europium crypate-labeled anti-Ig monoclonal antibody (1 nM final) and allophycocyanin (APC) labeled anti-His monoclonal antibody (20 nM final). Antibodies were diluted in HTRF detection buffer and 5 μl was dispensed on top of binding reaction. The reaction was allowed to equilibrate for 30 minutes and signal (665 nm/620 nm ratio) was obtained using an EnVision fluorometer. Additional binding assays were established between PD-1-Ig/PD-L2-His (20 and 5 nM, respectively), CD80-His/PD-L1-Ig (100 and 10 nM, respectively) and CD80-His/CTLA4-Ig (10 and 5 nM, respectively).
Recombinant Proteins. Carboxyl-truncated human PD-1 (amino acids 25-167) with a C-terminal human Ig epitope tag [hPD-1 (25-167)-3S-IG] and human PD-L1 (amino acids 18-239) with a C-terminal His epitope tag [hPD-L1(19-239)-tobacco vein mottling virus protease cleavage site (TVMV)-His] were expressed in HEK293T cells and purified sequentially by recombinant Protein A affinity chromatography and size exclusion chromatography. Human PD-L2-His (Sino Biologicals), CD80-His (Sino Biologicals), CTLA4-Ig (RnD Systems) were all obtained through commercial sources.

PD-1/PD-L1 interaction (PD-1-Ig / PD-L1-His), sequence (Q9NZQ7 18-239): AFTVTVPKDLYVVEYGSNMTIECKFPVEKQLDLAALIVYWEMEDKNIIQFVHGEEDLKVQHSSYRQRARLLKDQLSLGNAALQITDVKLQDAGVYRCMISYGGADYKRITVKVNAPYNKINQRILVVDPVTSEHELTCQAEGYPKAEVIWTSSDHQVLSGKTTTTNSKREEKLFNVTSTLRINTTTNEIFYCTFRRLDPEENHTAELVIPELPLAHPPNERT

Structure (SMILES)	IC50 [nM]
COc1cc(OCc2cccc(-c3cccc(OCC4CCCN(C)C4)c3Cl)c2C)c(Cl)cc1CN[C@H]1COC(=O)C1 (stereo partly drawn) [Compound 1042]	5.6
COc1cc(OCc2cccc(-c3cccc(OCC4CCCN(C)C4)c3Cl)c2C)c(Cl)cc1CN[C@H]1CCNC1=O (stereo partly drawn) [Compound 1044]	5.6
COc1cc(OCc2cccc(-c3cccc(OCC4CCCN(C)C4)c3Cl)c2C)c(Cl)cc1CN[C@H]1CCCNC1=O (stereo partly drawn) [Compound 1045]	3.6
COc1cc(OCc2cccc(-c3cccc(OCC4CCCN(C)C4)c3Cl)c2C)c(Cl)cc1CNC1CCC(=O)NC1=O (stereo not drawn) [Compound 1046]	3.1
Cc1c(COc2cc3c(cc2Cl)CN(C2CCOC2=O)C(=O)CO3)cccc1-c1cccc(OCC2CCCN(C)C2)c1Cl (stereo not drawn) [Compound 1047]	388

More lines, now with the values ahead:

IC50 [nM]	Structure (SMILES)
3830	C=C1COc2cc(OCc3cccc(-c4cccc(OCC5CCCN(C)C5)c4Cl)c3C)c(Cl)cc2CN(C2CCOC2=O)C1 (stereo not drawn) [Compound 1048]
11.5	Cc1c(COc2cc3c(cc2Cl)CN(C2CCOC2=O)CC(O)CO3)cccc1-c1cccc(OCC2CCCN(C)C2)c1Cl (stereo not drawn) [Compound 1049]
47.3	CC(=O)N(Cc1cc(Cl)c(COc2cccc(-c3cccc(COc4cc(OCc5cncc(C#N)c5)c(CN(C(C)=O)[C@@H]5COC(=O)C5)cc4Cl)c3C)c2C)cc1OCc1cncc(C#N)c1)[C@@H]1COC(=O)C1 [Compound 1050]
383	Cc1c(COc2cc(OCc3cncc(C#N)c3)c(CN(C)C3(C)CCOC3=O)cc2Cl)cccc1-c1cccc(COc2cc(OCc3cncc(C#N)c3)c(CN(C)C3(C)CCOC3=O)cc2Cl)c1C (stereo not drawn) [Compound 1051]
2500	Cc1c(COc2cc(OCc3cncc(C#N)c3)c(CN(CC3CC3)C3(C)CCOC3=O)cc2Cl)cccc1-c1cccc(COc2cc(OCc3cncc(C#N)c3)c(CN(CC3CC3)C3(C)CCOC3=O)cc2Cl)c1C (stereo not drawn) [Compound 1052]
1470	Cc1c(COc2cc(OCc3cncc(C#N)c3)c(CN(C)C3CC(C)OC3=O)cc2Cl)cccc1-c1cccc(COc2cc(OCc3cncc(C#N)c3)c(CN(C)C3CC(C)OC3=O)cc2Cl)c1C (stereo not drawn) [Compound 1053]
2520	CCN(Cc1cc(Cl)c(OCc2cccc(-c3cccc(COc4cc(OCc5cncc(C#N)c5)c(CN(CC)C5CC(C)OC5=O)cc4Cl)c3C)c2C)cc1OCc1cncc(C#N)c1)C1CC(C)OC1=O (stereo not drawn) [Compound 1054]
